One data set has as its system Syrian hamsters. The data set can be described thus: Scoring of adhesion formation after uterine denudation surgery in hamsters. In kind it is in vivo, hamster. To be noted: for preventative effect, reducing adhesion formation: subsequent experiments in the hamster model with enantiomerically enriched preparations. The procedure: (§1) Mature female Syrian hamsters (SLC, Shizuoka, Japan), 6 weeks of age, weighing 85 to 90 g were maintained in an environmentally controlled room with a 12-hour light, 12-hour dark cycle. Hamsters were anesthetized with intraperitoneal sodium pentobarbital (50 mg/kg). Surgical technique was performed using a modified procedure of Nagler et al. (Am. J. Obstet. Gynecol. 180:558-63, 1999). An abdominal midline incision was made, and the right uterus was grasped and denuded of serosa over half the length of the uterine body until punctate hemorrhage occurred, using a swab. In the […], 1 ml of 10 μM Suc-Val-Pro-Phe^P(OPh)2 in saline was injected into the abdomen. Then, the abdomen was closed in two layers with silk sutures. In the placebo group, the same 1 ml amount of saline was administered as in the chymase inhibitor group.
Three days after the surgery, the animals (placebo group, n=13; chymase group, n=13) were anesthetized with sodium pentobarbital (50 mgikg, i.p.), and then the uterus was removed for the measurement of chymase activity. Two weeks after the surgery, the animals (placebo group, n=15; chymase group, n=16) were anesthetized with sodium pentobarbital (50 mg/kg, i.p.), and then adhesions were assessed.
The adhesions were graded blindly according to a modified classification of Hulka et al. (Fertil Steril. 30:661-665, 1978): Score 0, no adhesions; Score 1, mild adhesions; Score 2, localized moderate adhesions; Score 3, moderate and wide adhesions; Score 4, severe adhesions, and impossible to separate. Chymase activities were evaluated in a parametric test using Fisher's Protected Least Significant Difference. Adhesion scores were evaluated in a nonparametric test, and statistically analyzed by the Mann-Whitney's U test. Values are given as means ±standard error (S.E.). Differences were considered statistically significant at P<0.05.

Data set [1] addresses T1, chymase (Homo sapiens, UniProt P23946).
T1 construct: from tissue
T1 sequence (P23946 22-247): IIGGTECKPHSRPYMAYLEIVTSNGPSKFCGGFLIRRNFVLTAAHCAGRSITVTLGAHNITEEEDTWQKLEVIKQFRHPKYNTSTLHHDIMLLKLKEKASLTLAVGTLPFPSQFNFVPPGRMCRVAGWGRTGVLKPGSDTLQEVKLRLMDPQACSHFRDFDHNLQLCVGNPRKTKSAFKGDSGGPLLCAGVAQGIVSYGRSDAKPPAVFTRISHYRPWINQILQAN
The data set can be described thus: Chymase activity in vascular tissues after administration during the operation. In kind it is in vivo. Particulars: for 4 weeks, 10 μM administration only during the operation. The source says:
Pursuant to the method of the present invention, at least one protease inhibitor is maintained in an effective concentration at the site of potential adhesion formation for a period of time sufficient to permit substantial re-epithelialization. The protease inhibitor compound is typically administered over the perioperative interval, which for purposes of the present invention may include a period of time prior to surgery, through surgery itself, and also post-completion of surgery. The term of administration of administration may vary, but typically should be effected from the time of surgery for at least 24 to 48 hours after completion of surgical procedures. In general, the protease inhibitory compound may be administered, with or without sustained release vehicles or formulations, from the time of surgery for a period ranging between about 24 hours and about 14 days (a period that generally will include complete healing). Preferably the compound may be administered as above from the time of surgery for a period ranging between about 24 hours and 7 days, and more preferably ranging between about 24 hours and 3 days. […] Effective dosages, regimens, and routes of administration for other protease inhibitors may be readily determined by one of skill in the art using the teachings provided herein.

The conditions of data set [2]: cited from earlier work.
Data set [3] relates to chymotrypsin and chymotrypsin-like enzymes. To be noted: cited from earlier work.
In data set [4] the test system is chymase. The data set can be described thus: Uterus chymase activity after uterine denudation surgery in hamsters. In kind it is in vivo, hamster. To be noted: three days after the operation; 1 ml of 10 μM in saline injected into the abdomen; mean ± S.E.; P=0.06 vs placebo (0.88±0.09). The procedure: as §1, with “In the placebo group, the same 1 ml amount of saline was administered as in the chymase inhibitor group.” left out
Three days after the surgery, the animals (placebo group, n=13; chymase group, n=13) were anesthetized with sodium pentobarbital (50 mgikg, i.p.), and then the uterus was removed for the measurement of chymase activity. Two weeks after the surgery, the animals (placebo group, n=15; chymase group, n=16) were anesthetized with sodium pentobarbital (50 mg/kg, i.p.), and then adhesions were assessed. […]
Chymase activity was measured as described previously (Jin et al., J. Hypertens. 16:657-664, 1998). […] Protein concentration was measured with the bicinchoninic acid protein assay reagent (Pierce Chemical, Rockford, Ill.) using bovine serum albumin as a standard. […]

In a further data set the target is bovine thrombin (Bos taurus, UniProt P00735). Particulars: cited from earlier work.
In another data set the target is human leukocyte elastase (Homo sapiens, UniProt P08246). Particulars: cited from earlier work.
human leukocyte elastase, sequence (P08246 30-267): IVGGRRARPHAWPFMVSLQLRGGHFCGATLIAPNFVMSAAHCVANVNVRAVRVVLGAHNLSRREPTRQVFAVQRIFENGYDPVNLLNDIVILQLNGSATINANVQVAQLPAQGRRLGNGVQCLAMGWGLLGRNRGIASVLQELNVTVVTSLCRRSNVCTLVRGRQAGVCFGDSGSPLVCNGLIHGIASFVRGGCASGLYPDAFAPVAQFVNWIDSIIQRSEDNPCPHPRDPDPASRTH

The text below walks through data of US20040018984A1, “Methods for preventing adhesion formation using protease inhibitors” (priority 2002, published 2004).

As to `CC(C)[C@H](NC(=O)CCC(=O)O)C(=O)N1CCC[C@H]1C(=O)NC(Cc1ccccc1)P(=O)(Oc1ccccc1)Oc1ccccc1` (stereo partly drawn) [Suc-Val-Pro-Phe^P(OPh)2-A], the “preventative effect, reducing adhesion formation” value with Syrian hamsters is recorded as “significant preventative effect”.
Regarding `CC(C)[C@H](NC(=O)CCC(=O)O)C(=O)N1CCC[C@H]1C(=O)NC(Cc1ccccc1)P(=O)(Oc1ccccc1)Oc1ccccc1` (stereo partly drawn) [Suc-Val-Pro-Phe^P(OPh)2-I], in the data set with Syrian hamsters, the “preventative effect, reducing adhesion formation” value is reported as “not”.
As for `CC(C)[C@H](NC(=O)CCC(=O)O)C(=O)N1CCC[C@H]1C(=O)NC(Cc1ccccc1)P(=O)(Oc1ccccc1)Oc1ccccc1` (stereo partly drawn) [Suc-Val-Pro-Phe^P(OPh)2], the “chymase activity in vascular tissues” value at chymase [1] is “significantly suppressed”. Also, the “half-life in human plasma” value in data set [2] is “approximately 20 hr”. In addition, the “inhibitor potency for chymotrypsin and chymotrypsin-like enzymes” value in data set [3] was “relatively potent inhibitor”. Also, the uterus chymase activity in the data set on chymase [4] stood at 0.66±0.06 mU/mg protein. The “scores of adhesion formation” value with Syrian hamsters (two weeks after surgery, 1 ml of 10 μM in saline into the abdomen, score 0-4, mean ± S.E., placebo 2.07±0.34, difference significant) was found to be 0.88±0.20. Also, in the data set with Syrian hamsters (two weeks after surgery, score 0-4, placebo scores between 0 and 4), the “highest score of adhesion formation found” value is ≤ 3.
Turning to `CC(C)(C)OC(=O)N[C@H](Cc1ccccc1)C(=O)N1CCC[C@H]1C(=O)NC(c1ccc(C(=N)N)cc1)P(=O)(Oc1ccccc1)Oc1ccccc1.Cl` (stereo partly drawn) [diphenyl Boc-D-Phe-Pro-amino(4-amidinophenyl)methanephosphonate hydrochloride], on bovine thrombin, the “inhibitor potency for bovine thrombin” value is “potent phosphonate inhibitor”.
In the case of Boc-Val-Pro-Val^P(OPh)2, on human leukocyte elastase, the “inhibitor potency for human leukocyte elastase” value is “relatively potent inhibitors”.
As to MeO-Suc-Ala-Ala-Pro-Val^P(OPh)2, the “inhibitor potency for human leukocyte elastase” value on human leukocyte elastase is “relatively potent inhibitors”.
